Measurements from patent publication US10100050B2 (CHIESI FARMACEUTICI S.P.A., priority 2015, dated 2018).

How the values were obtained:
[1] = test system: BEAS-2B cells; assay: TNFα-stimulated BEAS-2B IL-8 release assay; type: cell-based; conditions: Homo sapiens, IC50 classes, TNF-α 10 ng/ml, 18 h, read-out: TNFα-stimulated BEAS-2B IL-8 release inhibition
Method in brief: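 BEAS-2B cells at 80-90% confluence were pre-incubated 1 h with p38 inhibitors, then stimulated 18 h at 37 °C with TNF-α (10 ng/ml). Supernatant IL-8 was measured by ELISA. IC50 was taken from sigmoidal variable-slope fits of % inhibition of control release.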

[2] = molecular target: T1, p38alpha (Homo sapiens, UniProt Q16539); assay: P38alpha enzyme inhibition assay (Alphascreen kinase activity assay); type: biochemical; conditions: IC50 classes; 2 hours preincubation at 25° C., 250 μM ATP; read-out: p38α inhibition
T1 construct: purchased Invitrogen PV3304
Method in brief: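 p38alpha with 0.3 μg/ml ATF-2 fusion protein in HEPES pH 7.5 buffer (10 mM MgCl2, 2 mM DTT, 1% DMSO); compounds preincubated 2 h at 25° C, then 250 μM ATP added for 1 h at 25° C. Phospho-ATF2 detected by AlphaScreen luminescence with anti-phospho-ATF2 antibody; IC50 from concentration-response curves.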

[3] = test system: Peripheral Blood Mononuclear Cells (PBMCs); assay: LPS-stimulated PBMC TNFα release assay; type: cell-based; conditions: IC50 classes; human PBMC, LPS 10 ng/ml, 18 h; read-out: LPS-stimulated PBMC TNFα release inhibition
Method in brief: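 Human PBMCs from healthy donors, adhered 3 h in serum-free RPMI, received compound for 1 h in 1% FBS medium before 10 ng/ml LPS for 18 h. Supernatant TNFα was measured by MSD; IC50 from percentage inhibition of control release, at least three separate experiments.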

T1 sequence (Q16539 whole entry): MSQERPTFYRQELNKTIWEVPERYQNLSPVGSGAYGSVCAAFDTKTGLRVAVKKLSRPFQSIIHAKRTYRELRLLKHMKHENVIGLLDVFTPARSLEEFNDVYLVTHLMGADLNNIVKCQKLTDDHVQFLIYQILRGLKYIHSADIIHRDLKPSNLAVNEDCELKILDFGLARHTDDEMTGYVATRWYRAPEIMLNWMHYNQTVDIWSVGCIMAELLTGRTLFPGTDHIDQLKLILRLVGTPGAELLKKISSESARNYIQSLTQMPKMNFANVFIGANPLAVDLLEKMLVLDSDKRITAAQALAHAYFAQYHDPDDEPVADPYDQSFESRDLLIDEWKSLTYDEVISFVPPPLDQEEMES

SMILES	IC50 [2] [nM]	IC50 [1] [nM]	IC50 [3] [nM]
CN(CCO)Cc1cc(NC(=O)N[C@H]2CC[C@@H](Oc3ccc4nnc([C@]5(C)CCCN5C)n4c3)c3ccccc32)cc(C(C)(C)C)c1 [Example 67, 1-(3-tert-Butyl-5-{[(2-hydroxy-ethyl)-methyl-amino]-methyl}-phenyl)-3-{(1S,4R)-4-[3-((S)-1,2-dimethyl-pyrrolidin-2-yl)-[1,2,4]triazolo[4,3-a]pyridin-6-yloxy]-1,2,3,4-tetrahydro-naphthalen-1-yl}-urea]	< 1	0.3 to 1	> 5
CN(C)CCOCc1cc(NC(=O)N[C@H]2CC[C@@H](Oc3ccc4nnc([C@]5(C)CCCN5C)n4c3)c3ccccc32)cc(C(C)(C)C)c1 [Example 69]	< 1	< 0.3	> 5
CN1CCC[C@@]1(C)c1nnc2ccc(O[C@@H]3CC[C@H](NC(=O)Nc4cc(COCCN5CCCCC5)cc(C(C)(C)C)c4)c4ccccc43)cn12 [Example 71, 1-[3-tert-Butyl-5-(2-piperidin-1-yl-ethoxymethyl)-phenyl]-3-{(1S,4R)-4-[3-((S)-1,2-dimethyl-pyrrolidin-2-yl)-[1,2,4]triazolo[4,3-a]pyridin-6-yloxy]-1,2,3,4-tetrahydro-naphthalen-1-yl}-urea]	< 1	0.3 to 1	1 to 5
CN1CCC[C@@]1(C)c1nnc2ccc(O[C@@H]3CC[C@H](NC(=O)Nc4cc(COCCN5CCOCC5)cc(C(C)(C)C)c4)c4ccccc43)cn12 [Example 72, 1-[3-tert-Butyl-5-(2-morpholin-4-yl-ethoxymethyl)-phenyl]-3-{(1S,4R)-4-[3-((S)-1,2-dimethyl-pyrrolidin-2-yl)-[1,2,4]triazolo[4,3-a]pyridin-6-yloxy]-1,2,3,4-tetrahydro-naphthalen-1-yl}-urea]	< 1	0.3 to 1	> 5
C[C@H]1CCCCN1c1nnc2ccc(O[C@@H]3CC[C@H](NC(=O)Nc4cc(C(C)(C)C)ccc4CN4CCOCC4)c4ccccc43)cn12 [Example 74, 1-(5-tert-Butyl-2-morpholin-4-ylmethyl-phenyl)-3-{(1S,4R)-4-[3-((S)-2-methyl-piperidin-1-yl)-[1,2,4]triazolo[4,3-a]pyridin-6-yloxy]-1,2,3,4-tetrahydro-naphthalen-1-yl}-urea]	1 to 10	0.3 to 1	> 5

More lines, main results first:

IC50 [2] [nM]	SMILES	IC50 [1] [nM]	IC50 [3] [nM]
< 1	C[C@H]1CCCCN1c1nnc2ccc(O[C@@H]3CC[C@H](NC(=O)Nc4cc(CN(C)CCO)cc(C(C)(C)C)c4)c4ccccc43)cn12 [Example 68, 1-(3-tert-Butyl-5-{[(2-hydroxy-ethyl)-methyl-amino]-methyl}-phenyl)-3-{(1S,4R)-4-[3-((S)-2-methyl-piperidin-1-yl)-[1,2,4]triazolo[4,3-a]pyridin-6-yloxy]-1,2,3,4-tetrahydro-naphthalen-1-yl}-urea]	> 1	> 5
< 1	C[C@H]1CCCCN1c1nnc2ccc(O[C@@H]3CC[C@H](NC(=O)Nc4cc(COCCN(C)C)cc(C(C)(C)C)c4)c4ccccc43)cn12 [Example 70, 1-[3-tert-Butyl-5-(2-dimethylamino-ethoxymethyl)-phenyl]-3-{(1S,4R)-4-[3-((S)-2-methyl-piperidin-1-yl)-[1,2,4]triazolo[4,3-a]pyridin-6-yloxy]-1,2,3,4-tetrahydro-naphthalen-1-yl}-urea]	0.3 to 1	> 5
1 to 10	CN1CCC[C@@]1(C)c1nnc2ccc(O[C@@H]3CC[C@H](NC(=O)Nc4cc(C(C)(C)C)ccc4CN4CCOCC4)c4ccccc43)cn12 [Example 73, 1-(5-tert-Butyl-2-morpholin-4-ylmethyl-phenyl)-3-{(1S,4R)-4-[3-((S)-1,2-dimethyl-pyrrolidin-2-yl)-[1,2,4]triazolo[4,3-a]pyridin-6-yloxy]-1,2,3,4-tetrahydro-naphthalen-1-yl}-urea]	0.3 to 1	> 5
